In PubChem BioAssay AID330 (DTP/NCI, 2004):
“And” between values parts separate entries of the source, which are not always exact repeats. Identical values can stand only once. Toxic doses and inconclusive results are not listed.

System: P388 leukemia ip, CD2F1 mice, survival T/C
Assay: NCI In Vivo Anticancer Drug Screen. Data for tumor model P388 Leukemia (intraperitoneal) in CD2F1 (CDF1) mice
Conditions: endpoint: median survival time, higher = longer survival
Summary of the method: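 Mice carrying the transplanted tumor received test compound or vehicle. Survival was recorded in each group, and the value is the treated-group measurement divided by that of the vehicle-treated control group.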

[1] = dose: 25.0 mg/kg/injection, schedule: Q01DX009 (ip), vehicle: Klucel (hydroxypropylcellulose) (HPC)
[2] = dose: 50.0 mg/kg/injection, schedule: Q01DX009 (ip), vehicle: Klucel (hydroxypropylcellulose) (HPC)
[3] = dose: 100.0 mg/kg/injection, schedule: Q01DX009 (ip), vehicle: Klucel (hydroxypropylcellulose) (HPC)
[4] = dose: 200.0 mg/kg/injection, schedule: Q01DX009 (ip), vehicle: saline with Tween-80
[5] = dose: 50.0 mg/kg/injection, schedule: Q01DX009 (ip), vehicle: saline with Tween-80
[6] = dose: 100.0 mg/kg/injection, schedule: Q01DX009 (ip), vehicle: saline with Tween-80
[7] = dose: 50.0 mg/kg/injection, schedule: Q01DX009 (ip), vehicle: saline
[8] = dose: 100.0 mg/kg/injection, schedule: Q01DX009 (ip), vehicle: saline
[9] = dose: 200.0 mg/kg/injection, schedule: Q01DX009 (ip), vehicle: saline
[10] = dose: 12.5 mg/kg/injection, schedule: Q01DX009 (ip), vehicle: Klucel (hydroxypropylcellulose) (HPC)
[11] = dose: 50.0 mg/kg/injection, schedule: Q01DX005 (ip), vehicle: Klucel (hydroxypropylcellulose) (HPC)
[12] = dose: 100.0 mg/kg/injection, schedule: Q01DX005 (ip), vehicle: Klucel (hydroxypropylcellulose) (HPC)
[13] = dose: 200.0 mg/kg/injection, schedule: Q01DX005 (ip), vehicle: Klucel (hydroxypropylcellulose) (HPC)
[14] = dose: 50.0 mg/kg/injection, schedule: Q01DX005 (ip), vehicle: saline with Tween-80
[15] = dose: 100.0 mg/kg/injection, schedule: Q01DX005 (ip), vehicle: saline with Tween-80
[16] = dose: 200.0 mg/kg/injection, schedule: Q01DX005 (ip), vehicle: saline with Tween-80
[17] = dose: 50.0 mg/kg/injection, schedule: Q01DX005 (ip), vehicle: saline
[18] = dose: 100.0 mg/kg/injection, schedule: Q01DX005 (ip), vehicle: saline
[19] = dose: 200.0 mg/kg/injection, schedule: Q01DX005 (ip), vehicle: saline
[20] = dose: 25.0 mg/kg/injection, schedule: Q01DX005 (ip), vehicle: Klucel (hydroxypropylcellulose) (HPC)
[21] = dose: 60.0 mg/kg/injection, schedule: Q01DX005 (ip), vehicle: saline with Tween-80
[22] = dose: 120.0 mg/kg/injection, schedule: Q01DX005 (ip), vehicle: saline with Tween-80

O=C(Nc1nccs1)Nc1cc(C(F)(F)F)ccc1Cl
T/C [1]: 102 % of control | T/C [2]: 108 % of control | T/C [3]: 97 % of control

ClC(Cl)(Cl)SSC(=Nc1ccccc1)SSC(Cl)(Cl)Cl
T/C [4]: 155 % of control

CCCCCCCCCCCCCCP(I)(N(C)C)(N(C)C)N(C)C
T/C (dose: 0.1 mg/kg/injection, schedule: Q01DX009 (ip), vehicle: saline with Tween-80): 106 % of control | T/C (dose: 0.19 mg/kg/injection, schedule: Q01DX009 (ip), vehicle: saline with Tween-80): 113 % of control | T/C (dose: 0.38 mg/kg/injection, schedule: Q01DX009 (ip), vehicle: saline with Tween-80): 117 % of control

ClCCCCCCOC1CCCCO1 (configuration not stated)
T/C [5]: 110 % of control | T/C [6]: 106 % of control | T/C [4]: 97 % of control

CS/C(=N/S(=O)(=O)c1ccccc1)NNC(=S)Nc1ccc(C(C)C)cc1
T/C [7]: 94 % of control | T/C [8]: 97 % of control | T/C [9]: 97 % of control

COc1c2ccoc2nc2c(OC)c3c(cc12)OCO3
T/C (dose: 6.25 mg/kg/injection, schedule: Q01DX009 (ip), vehicle: Klucel (hydroxypropylcellulose) (HPC)): 105 % of control | T/C [10]: 99 % of control | T/C [1]: 94 % of control | T/C [2]: 94 % of control

CC1=N/C(=C\c2ccc(Br)cc2)C(=O)O1
T/C [11]: 109 % of control | T/C [12]: 98 % of control | T/C [13]: 112 % of control

CCC1(O)CC2C3C(C(=O)OC)=C4Nc5ccccc5C45CCN(C31)C25 (configuration not stated)
T/C (dose: 1.0 mg/kg/injection, schedule: Q01DX001 (ip), vehicle: water): 100 % of control | T/C (dose: 2.0 mg/kg/injection, schedule: Q01DX001 (ip), vehicle: water): 100 % of control | T/C (dose: 4.0 mg/kg/injection, schedule: Q01DX001 (ip), vehicle: water): 101 % of control | T/C (dose: 8.0 mg/kg/injection, schedule: Q01DX001 (ip), vehicle: water): 92 % of control | T/C (dose: 16.0 mg/kg/injection, schedule: Q01DX001 (ip), vehicle: water): 95 % of control | T/C (dose: 32.0 mg/kg/injection, schedule: Q01DX001 (ip), vehicle: water): 99 % of control

CCOc1c(N=Nc2ccccc2OC)c(-c2ccccc2)nn1C(N)=S
T/C [14]: 88 % of control | T/C [15]: 87 % of control | T/C [16]: 98 % of control

C=CC1(C)CCC2C(=CCC3C2(C)CC(O)C(O)C3(C)COC2OC(C(=O)O)C(O)C(O)C2O)C1 (configuration not stated) (tested in a mixture with another compound)
T/C [10]: 103 % of control | T/C [1]: 100 % of control | T/C [2]: 106 % of control | T/C [3]: 100 % of control

Cc1ccc(S(=O)(=O)/N=C\[N-][n+]2ccccc2C)cc1
T/C [2]: 101 % of control | T/C [3]: 93 % of control | T/C (dose: 200.0 mg/kg/injection, schedule: Q01DX009 (ip), vehicle: Klucel (hydroxypropylcellulose) (HPC)): 92 % of control

Cc1cccc(NC(=O)CCC(=O)NS(C)(=O)=O)c1
T/C (dose: 100.0 mg/kg/injection, schedule: Q04DX002 (ip), vehicle: saline): 103 % of control | T/C (dose: 200.0 mg/kg/injection, schedule: Q04DX002 (ip), vehicle: saline): 102 % of control | T/C (dose: 400.0 mg/kg/injection, schedule: Q04DX002 (ip), vehicle: saline): 100 % of control

COc1ccc(OC)c(CC(C)N)c1 (configuration not stated)
T/C (dose: 60.0 mg/kg/injection, schedule: Q01DX005 (ip), vehicle: saline): 98 % of control | T/C (dose: 120.0 mg/kg/injection, schedule: Q01DX005 (ip), vehicle: saline): 93 % of control

Cc1cc2c3c(cccc3c1)C(=O)c1ccccc1-2
T/C [14]: 102 % of control | T/C [15]: 102 % of control | T/C [16]: 93 % of control

O=C1C=C(N2CCN(CCO)CC2)C(=O)c2c(N3CCN(CCO)CC3)cc(N3CCN(CCO)CC3)nc21
T/C [17]: 97 % of control | T/C [18]: 93 % of control | T/C [19]: 93 % of control

Cc1ccc(Oc2ccc([N+](=O)[O-])c3[nH]c4ccccc4c(=O)c23)cc1
T/C [5]: 94 % of control | T/C [6]: 111 % of control | T/C [4]: 113 % of control

CNC(=O)OCc1c(-c2ccccc2)nc2n1CCS2
T/C (dose: 12.5 mg/kg/injection, schedule: Q01DX001 (ip), vehicle: Klucel (hydroxypropylcellulose) (HPC)): 108 % of control | T/C (dose: 25.0 mg/kg/injection, schedule: Q01DX001 (ip), vehicle: Klucel (hydroxypropylcellulose) (HPC)): 107 % of control | T/C (dose: 50.0 mg/kg/injection, schedule: Q01DX001 (ip), vehicle: Klucel (hydroxypropylcellulose) (HPC)): 113 % of control

CC(C)=CCc1c(C)cc2cc3c(c(O)c2c1O)C(O)=CC(=O)C3(CC=C(C)C)C/C=C(\C)CO (configuration not stated)
T/C [20]: 103 % of control | T/C [11]: 93 % of control | T/C [12]: 97 % of control

NC(=O)C(N)CCc1ccccc1 (configuration not stated)
T/C [21]: 100 % of control | T/C [22]: 102 % of control | T/C (dose: 240.0 mg/kg/injection, schedule: Q01DX005 (ip), vehicle: saline with Tween-80): 96 % of control

O=S(=O)(O)O.[Cu+2].[NH-]CCCCC[NH-].[NH-]CCCCC[NH-]
T/C (dose: 1.56 mg/kg/injection, schedule: Q04DX002 (ip), vehicle: Klucel (hydroxypropylcellulose) (HPC)): 100 % of control | T/C (dose: 3.12 mg/kg/injection, schedule: Q04DX002 (ip), vehicle: Klucel (hydroxypropylcellulose) (HPC)): 98 % of control | T/C (dose: 6.25 mg/kg/injection, schedule: Q04DX002 (ip), vehicle: Klucel (hydroxypropylcellulose) (HPC)): 100 % of control | T/C (dose: 12.5 mg/kg/injection, schedule: Q04DX002 (ip), vehicle: Klucel (hydroxypropylcellulose) (HPC)): 88 % of control and 98 % of control

C/C(CCn1[nH]c(=O)ccc1=O)=N\NS(=O)(=O)c1ccc(C)cc1
T/C [21]: 103 % of control | T/C [22]: 109 % of control | T/C (dose: 134.0 mg/kg/injection, schedule: Q01DX005 (ip), vehicle: saline with Tween-80): 105 % of control

COc1ccc(-n2c(SCC(=O)NC(=O)Nc3ccccc3)nc3c(Br)cc(Br)cc3c2=O)cc1
T/C (dose: 7.5 mg/kg/injection, schedule: Q01DX005 (ip), vehicle: Klucel (hydroxypropylcellulose) (HPC)): 97 % of control | T/C (dose: 15.0 mg/kg/injection, schedule: Q01DX005 (ip), vehicle: Klucel (hydroxypropylcellulose) (HPC)): 92 % of control | T/C (dose: 30.0 mg/kg/injection, schedule: Q01DX005 (ip), vehicle: Klucel (hydroxypropylcellulose) (HPC)): 86 % of control and 94 % of control | T/C (dose: 120.0 mg/kg/injection, schedule: Q01DX005 (ip), vehicle: Klucel (hydroxypropylcellulose) (HPC)): 90 % of control | T/C (dose: 240.0 mg/kg/injection, schedule: Q01DX005 (ip), vehicle: Klucel (hydroxypropylcellulose) (HPC)): 101 % of control

COc1cc(NC(C)CN(CC(C)C)CC(C)C)c2ncccc2c1Cl (configuration not stated)
T/C [17]: 100 % of control | T/C [18]: 103 % of control | T/C [19]: 116 % of control

O=C1C(Cl)=C(NCCC2CCCN3CCCCC23)C(=O)c2ccccc21 (configuration not stated)
T/C (dose: 12.5 mg/kg/injection, schedule: Q01DX005 (ip), vehicle: Klucel (hydroxypropylcellulose) (HPC)): 99 % of control and 101 % of control and 93 % of control | T/C [20]: 98 % of control and 99 % of control and 97 % of control | T/C [12]: 109 % of control and 111 % of control

Cc1ccc(NC(=O)c2cc3ccccc3cc2O)c(C)c1.Cc1ccc(NC(=O)c2cc3ccccc3cc2O)c(C)c1.[Mn+2]
T/C [7]: 87 % of control | T/C [8]: 86 % of control | T/C [9]: 86 % of control

CCCCC1=C([Si](C)(C)C)C(=O)c2ccccc2C1=O
T/C [20]: 109 % of control | T/C [11]: 110 % of control and 111 % of control and 113 % of control | T/C [12]: 115 % of control and 86 % of control | T/C [13]: 110 % of control and 118 % of control

Nc1ccc[nH]c1=O
T/C (dose: 12.5 mg/kg/injection, schedule: Q01DX009 (ip), vehicle: saline): 100 % of control and 113 % of control | T/C (dose: 25.0 mg/kg/injection, schedule: Q01DX009 (ip), vehicle: saline): 103 % of control | T/C [7]: 98 % of control and 103 % of control | T/C [8]: 103 % of control and 113 % of control | T/C (dose: 400.0 mg/kg/injection, schedule: Q01DX009 (ip), vehicle: saline): 100 % of control

CSc1noc(N)n1
T/C (dose: 12.5 mg/kg/injection, schedule: Q01DX005 (ip), vehicle: saline): 94 % of control | T/C (dose: 25.0 mg/kg/injection, schedule: Q01DX005 (ip), vehicle: saline): 91 % of control | T/C [17]: 103 % of control and 94 % of control
